# Reference: US8735363B2, “Preparation and application of heparin silver” (priority 2005, dated 2014)
# Columns and labels:
# [1] = tested on: hyperplastic scar wound surface; assay: Animal model of hyperplastic scar (excised whole-thickness skin wound); type: in vivo, New-Zealand rabbit
# Protocol: The scar tissue was subjected to Masson staining and observed under light microscope, and the thickness of dermis (Da) of wound surface after epithelization and the thickness of dermis (Db) of adjacent normal tissue were measured.
# [2] = tested on: deep second degree scald wound surface; assay: Animal model of burn (deep second degree steam scald); type: in vivo, Rats
# Protocol: After rats were wounded, samples were taken at intervals of time. The wet weight of wound surface tissue (Ga) and the tissue dry weight (Gb) after baking at 80° C. for 72 hours were measured by weighting method. The water content of wound surface was calculated as W=(Ga−Gb)/Ga×100%, wherein W represented the degree of edema.
substance,measurement,setting,value
heparin silver,"Scar index, 60 days","[1]; 60 days, scar index = (Da−Db)/Db, dermis thickness, Masson staining",2.06 ± 0.83 (n = 6)
same,"Scar index, 180 days","[1]; 180 days, scar index = (Da−Db)/Db, dermis thickness, Masson staining",1.85 ± 0.52 (n = 6)
same,Healing time of wound surface (days),"[1]; rabbit 2 cm×5 cm excision wound, dressing with powder changed once per week, healed = scab less than 5% of wound area",21.4 ± 2.16 (n = 6) days
same,Water content of wound surface (W),"[2]; 8 h after wounding, W=(Ga−Gb)/Ga×100%, degree of edema",80.25 ± 2.78 (n = 6) %
same,Water content of wound surface (W),[2]; 24 h after wounding,70.82 ± 3.56 (n = 6) %
same,Hydroxyproline content of wound surface,"[2]; 1 d after wounding, chloramine T oxidization method",18.55 ± 2.13 (n = 5) ug/mL
same,Hydroxyproline content of wound surface,[2]; 2 d after wounding,20.45 ± 2.12 (n = 5) ug/mL
same,Water content of wound surface (W),[2]; 48 h after wounding,70.16 ± 2.64 (n = 6) %
same,Hydroxyproline content of wound surface,[2]; 3 d after wounding,22.04 ± 1.35 (n = 5) ug/mL
same,Water content of wound surface (W),[2]; 72 h after wounding,68.44 ± 1.32 (n = 5) %
same,Hydroxyproline content of wound surface,[2]; 5 d after wounding,23.27 ± 2.11 (n = 6) ug/mL
same,Water content of wound surface (W),[2]; 5 d after wounding,67.61 ± 2.85 (n = 5) %
same,Hydroxyproline content of wound surface,[2]; 7 d after wounding,23.96 ± 2.54 (n = 6) ug/mL
same,Water content of wound surface (W),[2]; 7 d after wounding,67.52 ± 1.36 (n = 5) %
same,Hydroxyproline content of wound surface,[2]; 10 d after wounding,26.87 ± 2.36 (n = 6) ug/mL
same,Hydroxyproline content of wound surface,[2]; 14 d after wounding,26.91 ± 2.14 (n = 6) ug/mL
same,Hydroxyproline content of wound surface,[2]; 21 d after wounding,24.05 ± 1.74 (n = 7) ug/mL
same,Healing Time (d),"[2]; rat 20% area deep second degree scald, powder dressing 0.5-1 mm changed once per day",21.5 ± 2.2 (n = 8) d
same,effect in the treatment of burns and/or scalds (animal test),[2]; summary statement,"accelerating healing speed, reducing occurrence of infection and inflammation, and improving healing quality of wound surface"
